Test results reported in the supplement of paper PMC11451515.

System: NOMO1
Assay: cell viability relative to DMSO control; higher = less cytotoxic
Conditions: 48 h
In short: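 Library compounds in DMSO were pin-dosed into 1536-well plates (5 μl) holding NOMO1 or SEM (500 cells/well) or P12-Ichikawa (1000 cells/well) leukemia cells, across an 11-point threefold series of 47 μM to 0.79 nM. Each cell line had been adapted for at least four passages in each medium. CellTiter-Glo One luminescence was read after 48 h at 37°C. Viability is the per-plate percentage relative to DMSO wells, with cell-free wells as background.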

[1] = HPLM + 10% dialyzed FBS, 0.000781 µM
[2] = HPLM + 10% dialyzed FBS, 0.00234 µM
[3] = HPLM + 10% dialyzed FBS, 0.00702 µM
[4] = HPLM + 10% dialyzed FBS, 0.0211 µM
[5] = HPLM + 10% dialyzed FBS, 0.0632 µM
[6] = HPLM + 10% dialyzed FBS, 0.19 µM
[7] = HPLM + 10% dialyzed FBS, 0.569 µM
[8] = HPLM + 10% dialyzed FBS, 1.71 µM
[9] = HPLM + 10% dialyzed FBS, 5.12 µM
[10] = HPLM + 10% dialyzed FBS, 15.4 µM
[11] = HPLM + 10% dialyzed FBS, 46.1 µM
[12] = RPMI 5 mM glucose + 10% FBS, 0.000781 µM
[13] = RPMI 5 mM glucose + 10% FBS, 0.00234 µM
[14] = RPMI 5 mM glucose + 10% FBS, 0.00702 µM
[15] = RPMI 5 mM glucose + 10% FBS, 0.0211 µM
[16] = RPMI 5 mM glucose + 10% FBS, 0.0632 µM
[17] = RPMI 5 mM glucose + 10% FBS, 0.19 µM
[18] = RPMI 5 mM glucose + 10% FBS, 0.569 µM
[19] = RPMI 5 mM glucose + 10% FBS, 1.71 µM
[20] = RPMI 5 mM glucose + 10% FBS, 5.12 µM
[21] = RPMI 5 mM glucose + 10% FBS, 15.4 µM
[22] = RPMI 5 mM glucose + 10% FBS, 46.1 µM
[23] = RPMI 5 mM glucose + 10% dialyzed FBS, 0.000781 µM
[24] = RPMI 5 mM glucose + 10% dialyzed FBS, 0.00234 µM
[25] = RPMI 5 mM glucose + 10% dialyzed FBS, 0.00702 µM
[26] = RPMI 5 mM glucose + 10% dialyzed FBS, 0.0211 µM
[27] = RPMI 5 mM glucose + 10% dialyzed FBS, 0.0632 µM
[28] = RPMI 5 mM glucose + 10% dialyzed FBS, 0.19 µM
[29] = RPMI 5 mM glucose + 10% dialyzed FBS, 0.569 µM
[30] = RPMI 5 mM glucose + 10% dialyzed FBS, 1.71 µM
[31] = RPMI 5 mM glucose + 10% dialyzed FBS, 5.12 µM
[32] = RPMI 5 mM glucose + 10% dialyzed FBS, 15.4 µM
[33] = RPMI 5 mM glucose + 10% dialyzed FBS, 46.1 µM

| SMILES | cell viability [1] | cell viability [2] | cell viability [3] | cell viability [4] | cell viability [5] | cell viability [6] | cell viability [7] | cell viability [8] | cell viability [9] | cell viability [10] | cell viability [11] | cell viability [12] | cell viability [13] | cell viability [14] | cell viability [15] | cell viability [16] | cell viability [17] | cell viability [18] | cell viability [19] | cell viability [20] | cell viability [21] | cell viability [22] | cell viability [23] | cell viability [24] | cell viability [25] | cell viability [26] | cell viability [27] | cell viability [28] | cell viability [29] | cell viability [30] | cell viability [31] | cell viability [32] | cell viability [33] |
| --- | --- | --- | --- | --- | --- | --- | --- | --- | --- | --- | --- | --- | --- | --- | --- | --- | --- | --- | --- | --- | --- | --- | --- | --- | --- | --- | --- | --- | --- | --- | --- | --- | --- |
| N[S+](=O)([O-])c1cc2c(cc1Cl)NC(C(Cl)Cl)N[S+]2(=O)[O-] (stereo not drawn) | 96.9% | 107% | 113% | 117% | 111% | 135% | 136% | 130% | 121% | 125% | 124% | 105% | 96.1% | 105% | 107% | 102% | 103% | 123% | 108% | 102% | 125% | 110% | 112% | 114% | 109% | 118% | 112% | 118% | 120% | 126% | 125% | 141% | 120% |
| C/C(=N\NC(=S)N1CCC1)c1ccccn1 | 104% | 76.1% | 48.5% | 29.9% | 20.8% | 6.85% | 5.67% | 4.05% | 2.98% | 15.2% | 5.74% | 107% | 96.5% | 74.6% | 15.3% | 13% | 7.95% | 6.53% | 8.3% | 2.84% | 13.7% | 11.8% | 99.3% | 93.6% | 37.7% | 19.6% | 17.9% | 8.08% | 6.69% | 5.23% | 2.95% | 8.3% | 13.1% |
| CCC[S+](=O)([O-])Nc1ccc(F)c(C(=O)c2c[nH]c3ncc(Cl)cc23)c1F |  |  |  |  |  |  |  |  |  |  |  | 112% | 110% | 115% | 117% | 120% | 121% | 114% | 108% | 107% | 62.6% | 43.8% | 116% | 119% | 117% | 100% | 107% | 128% | 119% | 122% | 123% | 62.3% | 42.9% |
| CC(C)=CCC/C(C)=C/CC/C(C)=C/CC/C(C)=C/CC/C(C)=C/CC/C(C)=C/CC/C(C)=C/CC/C(C)=C/CC/C(C)=C/CO | 117% | 123% | 105% | 92.7% | 107% | 114% | 112% | 117% | 100% | 96.6% | 102% | 95.7% | 96.3% | 108% | 100% | 101% | 105% | 115% | 104% | 92.6% | 92.8% | 88.3% | 92.2% | 91% | 111% | 93.6% | 103% | 113% | 94.4% | 95.6% | 91.6% | 87.7% | 86.9% |
| OC1=CC=C(C=C1)\C2=C\OC3=C(C(=CC(=C3)O)O)C2=O | 110% | 112% | 117% | 120% | 116% | 122% | 124% | 113% | 107% | 137% | 117% | 108% | 111% | 107% | 117% | 104% | 115% | 108% | 109% | 112% | 123% | 110% | 94.7% | 113% | 99.8% | 110% | 118% | 117% | 107% | 108% | 118% | 115% | 103% |
| CC(=O)OC[C@H]1O[C@@H]([S-])[C@H](OC(C)=O)[C@@H](OC(C)=O)[C@@H]1OC(C)=O.CCP(CC)CC.[Au+] | 80.7% | 84.3% | 96.5% | 92% | 75.9% | 93.7% | 96.7% | 93.8% | 31.5% | 7.92% | 5.33% | 86.7% | 99.2% | 85.4% | 96.4% | 98.4% | 104% | 106% | 89.8% | 18.8% | 6.15% | 5% | 88.3% | 96.7% | 90.5% | 96.2% | 91.7% | 94.5% | 95.4% | 88.7% | 40.8% | 5.52% | 4.43% |
| CCn1c(-c2nonc2N)nc2c(C#CC(C)(C)O)ncc(OC[C@H]3CCCNC3)c21 | 91.3% | 88.8% | 80% | 96% | 73.4% | 75.8% | 71.9% | 61.7% | 70.3% | 71.7% | 48% | 80.8% | 82.5% | 84.1% | 84.1% | 79.8% | 87.3% | 81% | 83.5% | 82% | 84.1% | 49.3% | 77.2% | 96.1% | 86.8% | 93.7% | 80.6% | 84.3% | 74.4% | 82% | 74.2% | 79.2% | 68.2% |
| OC1=CC2=C(C=C1)C(=O)\C(=C(O2)\C3=CC(=C(O)C=C3)O)O | 105% | 98% | 108% | 93% | 102% | 97.1% | 91.2% | 105% | 84% | 93.9% | 65.6% | 85.9% | 91.3% | 96.2% | 6.71% | 96.6% | 85% | 99.7% | 88.9% | 74.5% | 74.8% | 67.5% | 96.5% | 103% | 101% | 96.3% | 100% | 92% | 93.3% | 89.5% | 81.3% | 81.3% | 60.1% |
